Measurements taken from patent publication US20210253575A1, “PYRROLIDINE AMINE COMPOUNDS FOR THE TREATMENT OF AUTOIMMUNE DISEASE” (Hoffmann-La Roche Inc., priority 2018, published 2021).

Biological target: T1, human TLR7 (Homo sapiens, UniProt Q9NYK1)
T1 sequence (Q9NYK1 27-1049): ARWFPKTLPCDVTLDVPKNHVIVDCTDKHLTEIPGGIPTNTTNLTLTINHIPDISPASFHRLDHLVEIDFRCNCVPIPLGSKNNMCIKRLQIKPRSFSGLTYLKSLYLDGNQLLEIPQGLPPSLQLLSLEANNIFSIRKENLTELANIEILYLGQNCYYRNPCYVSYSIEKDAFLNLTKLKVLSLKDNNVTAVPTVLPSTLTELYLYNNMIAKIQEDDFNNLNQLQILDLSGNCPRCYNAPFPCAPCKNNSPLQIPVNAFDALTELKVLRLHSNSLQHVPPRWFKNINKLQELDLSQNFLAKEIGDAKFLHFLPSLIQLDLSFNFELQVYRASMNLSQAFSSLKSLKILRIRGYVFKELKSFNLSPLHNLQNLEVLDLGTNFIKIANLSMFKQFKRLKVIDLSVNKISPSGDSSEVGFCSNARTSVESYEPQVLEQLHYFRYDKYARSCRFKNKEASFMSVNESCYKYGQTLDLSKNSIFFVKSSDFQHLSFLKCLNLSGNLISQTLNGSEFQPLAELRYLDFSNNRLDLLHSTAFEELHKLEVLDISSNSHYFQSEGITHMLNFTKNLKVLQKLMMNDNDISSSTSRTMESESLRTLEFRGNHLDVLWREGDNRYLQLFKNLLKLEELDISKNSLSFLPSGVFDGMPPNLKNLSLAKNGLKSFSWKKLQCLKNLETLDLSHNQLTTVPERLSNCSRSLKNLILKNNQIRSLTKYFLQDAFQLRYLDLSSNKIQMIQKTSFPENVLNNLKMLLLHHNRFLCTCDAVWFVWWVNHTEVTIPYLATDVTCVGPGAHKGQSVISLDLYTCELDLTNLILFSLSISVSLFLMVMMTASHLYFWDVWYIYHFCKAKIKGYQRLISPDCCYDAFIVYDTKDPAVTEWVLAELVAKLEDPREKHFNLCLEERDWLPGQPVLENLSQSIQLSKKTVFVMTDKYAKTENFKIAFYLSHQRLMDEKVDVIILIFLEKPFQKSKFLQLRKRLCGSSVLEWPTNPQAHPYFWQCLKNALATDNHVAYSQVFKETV
Test: HEK293-Blue-hTLR-7 cells assay (SEAP reporter, R848 stimulation)
Type: cell-based
Conditions: HEK293-Blue-hTLR7 cells, R848 ligand, 20 hrs incubation
Protocol: The following tests were carried out in order to determine the activity of the compounds of formula (I) in HEK293-Blue-hTLR-7/8/9 cells assay.
HEK293-Blue-hTLR-7 Cells Assay:
A stable HEK293-Blue-hTLR-7 cell line was purchased from InvivoGen (Cat. #: hkb-htlr7, San Diego, Calif., USA). These cells were originally designed for studying the stimulation of human TLR7 by monitoring the activation of NF-κB. A SEAP (secreted embryonic alkaline phosphatase) reporter gene was placed under the control of the IFN-β minimal promoter fused to five NF-κB and AP-1-binding sites. The SEAP was induced by activating NF-κB and AP-1 via stimulating HEK-Blue hTLR7 cells with TLR7 ligands. Therefore the reporter expression was declined by TLR7 antagonist under the stimulation of a ligand, such as R848 (Resiquimod), for incubation of 20 hrs. The cell culture supernatant SEAP reporter activity was determined using QUANTI-Blue™ kit (Cat. #: rep-qb1, Invivogen, San Diego, Ca, USA) at a wavelength of 640 nm, a detection medium that turns purple or blue in the presence of alkaline phosphatase.
HEK293-Blue-hTLR7 cells were incubated at a density of 250,000-450,000 cells/mL in a volume of 170 μL in a 96-well plate in Dulbecco's Modified Eagle's medium (DMEM) containing 4.5 g/L glucose, 50 U/mL penicillin, […], […], 2 mM L-glutamine, 10% (v/v) heat-inactivated fetal bovine serum with addition of 20 μL test compound in a serial dilution in the presence of final DMSO at 1% and 10 μL of 20 uM R848 in above DMEM, perform incubation under 37° C. in a CO2 incubator for 20 hrs. Then 20 μL of the supernatant from each well was incubated with 180 μL Quanti-blue substrate solution at 37° C. for 2 hrs and the absorbance was read at 620-655 nm using a spectrophotometer. The signalling pathway that TLR7 activation leads to downstream NF-κB activation has been widely accepted, and therefore similar reporter assay was modified for evaluating TLR7 antagonist.

SMILES	IC50 [nM]
N#Cc1ccc(N2C[C@H](CN3CC4(CC(N)C4)C3)[C@@H](C(F)(F)F)C2)c2nccnc12 [Example 47, 8-[(3S,4R)-3-[(6-amino-2-azaspiro[3.3]heptan-2-yl)methyl]-4-(trifluoromethyl)pyrrolidin-1-yl]quinoxaline-5-carbonitrile]	88
CC1(CN)CCCN(C[C@H]2CN(c3ccc(C#N)c4nccnc34)C[C@@H]2C(F)(F)F)C1 (stereo partly drawn) [Example 75, 8-[(3S,4R)-3-[[3-(aminomethyl)-3-methyl-1-piperidyl]methyl]-4-(trifluoromethyl)pyrrolidin-1-yl]quinoxaline-5-carbonitrile]	26
N#Cc1ccc(N2CC(CN3CCC(N)CC3)C3(CC3)C2)c2nccnc12 (stereo not drawn) [Example 68, 8-[7-[(4-Amino-1-piperidyl)methyl]-5-azaspiro[2.4]heptan-5-yl]quinoxaline-5-carbonitrile]	75
N#Cc1ccc(N2CC(CN3CCC(N4CCCCC4)CC3)C3(CC3)C2)c2nccnc12 (stereo not drawn) [Example 11, 8-[7-[[4-(1-Piperidyl)-1-piperidyl]methyl]-5-azaspiro[2.4]heptan-5-yl]quinoxaline-5-carbonitrile]	74
N#Cc1ccc(N2C[C@H](CNC3CCNCC3)[C@@H](C(F)(F)F)C2)c2nccnc12 [Example 71, 8-[(3S,4R)-3-[(4-piperidylamino)methyl]-4-(trifluoromethyl)pyrrolidin-1-yl]quinoxaline-5-carbonitrile]	39
FC(F)(F)c1ccc(N2CC(CN3CCNCC3)C3(CC3)C2)c2nccnc12 (stereo not drawn) [Example 20, 5-[7-(Piperazin-1-ylmethyl)-5-azaspiro[2.4]heptan-5-yl]-8-(trifluoromethyl)quinoxaline]	156
CC1(N)CCN(CC2CN(c3ccc(C#N)c4nccnc34)CC23CC3)CC1 (stereo not drawn) [Example 7, 8-[7-[(4-Amino-4-methyl-1-piperidyl)methyl]-5-azaspiro[2.4]heptan-5-yl]quinoxaline-5-carbonitrile]	54
N#Cc1ccc(N2CC(CNC3CCCNCC3)C3(CC3)C2)c2nccnc12 (stereo not drawn) [Example 39, 8-[7-[(Azepan-4-ylamino)methyl]-5-azaspiro[2.4]heptan-5-yl]quinoxaline-5-carbonitrile]	709
C[C@H]1CN(c2ccc(C#N)c3ncccc23)C[C@@H]1CN1CCC2(CCNC2)C1 (stereo partly drawn) [Example 35, 5-[(3S,4R)-3-(2,7-diazaspiro[4.4]nonan-2-ylmethyl)-4-methyl-pyrrolidin-1-yl]quinoline-8-carbonitrile]	468
N#Cc1ccc(N2C[C@H](CN3CC4(CCCNC4)C3)[C@@H](C(F)(F)F)C2)c2cccnc12 [Example 8, 5-[(3S,7R)-3-(2,8-diazaspiro[3.5]nonan-2-ylmethyl)-4-(trifluoromethyl)pyrrolidin-1-yl]quinoline-8-carbonitrile]	57
N#Cc1ccc(N2C[C@H](CN3CCCC(C(N)=O)C3)[C@@H](C(F)(F)F)C2)c2nccnc12 (stereo partly drawn) [Example 69, 1-[[(3S,4R)-1-(S-cyanoquinoxalin-5-yl)-4-(trifluoromethyl)pyrrolidin-3-yl]methyl]piperidine-3-carboxamide]	135
N#Cc1ccc(N2C[C@H](CN3C4CCC3CC(N)C4)[C@@H](C(F)(F)F)C2)c2nccnc12 (stereo partly drawn) [Example 63, 8-[(3S,4R)-3-[(3-amino-8-azabicyclo[3.2.1]octan-8-yl)methyl]-4-(trifluoromethyl)pyrrolidin-1-yl]quinoxaline-5-carbonitrile]	57
N#Cc1ccc(N2CC(CN3C[C@H]4CNC[C@H]4C3)C3(CC3)C2)c2nccnc12 (stereo partly drawn) [Example 18, 8-[7-[[(3aR,6aS)-2,3,3a,4,6,6a-hexahydro-H-pyrrolo[3,4-c]pyrrol-5-yl]methyl]-5-azaspiro[2.4]heptan-5-yl]quinoxaline-5-carbonitrile]	137
N#Cc1ccc(N2C[C@H](CN3CCC4(CCNC4)C3)[C@@H](C(F)(F)F)C2)c2nccnc12 (stereo partly drawn) [Example 5, 8-[(3S,4R)-3-(2,7-diazaspiro[4.4]nonan-2-ylmethyl)-4-(trifluoromethyl)pyrrolidin-1-yl]quinoxaline-5-carbonitrile]	36
N#Cc1ccc(N2C[C@H](CN3CC4CCC3CN4)[C@@H](C(F)(F)F)C2)c2nccnc12 (stereo partly drawn) [Example 77, 8-[(3S,4R)-3-(2,5-diazabicyclo[2.2.2]octan-2-ylmethyl)-4-(trifluoromethyl)pyrrolidin-1-yl]quinoxaline-5-carbonitrile]	13
C[C@@H]1CN(c2ccc(C(F)(F)F)c3nccnc23)C[C@H]1CN1CCC(N2CCCCC2)CC1 (relative stereo) [Example 33, 5-[Trans-3-methyl-4-[[4-(1-piperidyl)-1-piperidyl]methyl]pyrrolidin-1-yl]-8-(trifluoromethyl)quinoxaline]	432
N#Cc1ccc(N2C[C@H](CN3CCC(N4CCNCC4)CC3)[C@@H](C(F)(F)F)C2)c2cccnc12 [Example 52, 5-[(3S,4R)-3-[(4-piperazin-1-yl-1-piperidyl)methyl]-4-(trifluoromethyl)pyrrolidin-1-yl]quinoline-8-carbonitrile]	39
N#Cc1ccc(N2C[C@H](CN3CCC4(CCNC4)CC3)[C@@H](C(F)(F)F)C2)c2cccnc12 [Example 54, 5-[(3S,4R)-3-(2,8-Diazaspiro[4.5]decan-8-ylmethyl)-4-(trifluoromethyl)pyrrolidin-1-yl]quinoline-8-carbonitrile]	91
CC[C@@H]1CN(c2ccc(C#N)c3ncccc23)C[C@H]1CN1CCC2(CCNC2)C1 (relative stereo) [Example 29, 5-[Trans-3-(2,7-diazaspiro[4.4]nonan-2-ylmethyl)-4-ethyl-pyrrolidin-1-yl]quinoline-8-carbonitrile]	370
N#Cc1ccc(N2C[C@H](CN3CCC4(CCNCC4)CC3)[C@@H](C(F)(F)F)C2)c2cccnc12 [Example 2, 5-[(3S,4R)-3-(3,9-diazaspiro[5.5]undecan-3-ylmethyl)-4-(trifluoromethyl)pyrrolidin-1-yl]quinoline-8-carbonitrile]	20
CC[C@@H]1CN(c2ccc(C#N)c3ncccc23)C[C@H]1CN1CCC2(CCNCC2)CC1 (relative stereo) [Example 15, 5-[Trans-3-(3,9-diazaspiro[5.5]undecan-3-ylmethyl)-4-ethyl-pyrrolidin-1-yl]quinoline-8-carbonitrile]	107
N#Cc1ccc(N2CCC(CN3CCC4(CCNCC4)CC3)C2)c2nccnc12 (stereo not drawn) [Example 37, 8-[3-(3,9-Diazaspiro[5.5]undecan-3-ylmethyl)pyrrolidin-1-yl]quinoxaline-5-carbonitrile]	651
N#Cc1ccc(N2CC(CN3CCC4(CCNC4)C3)C3(CC3)C2)c2cccnc12 (stereo not drawn) [Example 43, 5-[7-(2,7-Diazaspiro[4.4]nonan-2-ylmethyl)-5-azaspiro[2.4]heptan-5-yl]quinoline-8-carbonitrile]	899
C[C@H]1CN(C[C@H]2CN(c3ccc(C#N)c4nccnc34)C[C@@H]2C(F)(F)F)CC[C@H]1N [Example 72, 8-[(3S,4R)-3-[[(3S,4R)-4-amino-3-methyl-1-piperidyl]methyl]-4-(trifluoromethyl)pyrrolidin-1-yl]quinoxaline-5-carbonitrile]	13
